The text below walks through data of PubChem BioAssay AID192 (DTP/NCI, 2004).

The test deals with BDF1 mice, B16 melanoma ip, median survival T/C. The experiment in a line: NCI In Vivo Anticancer Drug Screen. Data for tumor model B16 Melanoma (intraperitoneal) in B6D2F1 (BDF1) mice. Particulars: endpoint: median survival time, higher = longer survival. In outline:
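In this screen, activity was judged from survival or tumor size in treated versus vehicle-treated tumor-bearing mice, reported as T/C.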

[1] abbreviates: dose: 6.25 mg/kg/injection, schedule: Q01DX009 (ip), vehicle: saline with Tween-80.
[2] abbreviates: dose: 12.5 mg/kg/injection, schedule: Q01DX009 (ip), vehicle: saline with Tween-80.
Where [3] appears, read: dose: 25.0 mg/kg/injection, schedule: Q01DX009 (ip), vehicle: saline with Tween-80.
Setting [4] is: dose: 50.0 mg/kg/injection, schedule: Q01DX009 (ip), vehicle: saline with Tween-80.
Setting [5] is: dose: 100.0 mg/kg/injection, schedule: Q01DX009 (ip), vehicle: saline with Tween-80.
Where [6] appears, read: dose: 50.0 mg/kg/injection, schedule: Q01DX009 (ip), vehicle: Klucel (hydroxypropylcellulose) (HPC).
The mark [7] stands for this setting: dose: 100.0 mg/kg/injection, schedule: Q01DX009 (ip), vehicle: Klucel (hydroxypropylcellulose) (HPC).
Setting [8] is: dose: 6.25 mg/kg/injection, schedule: Q01DX009 (ip), vehicle: Klucel (hydroxypropylcellulose) (HPC).
Setting [9] is: dose: 12.5 mg/kg/injection, schedule: Q01DX009 (ip), vehicle: Klucel (hydroxypropylcellulose) (HPC).
[10] abbreviates: dose: 200.0 mg/kg/injection, schedule: Q01DX009 (ip), vehicle: Klucel (hydroxypropylcellulose) (HPC).

Molecules are shown by their SMILES. Several values for one entry are separate records, joined by “and”; a condition that tells them apart may be missing. Equal values may be shown once. Inconclusive results and toxic doses are left out.

As for `Nc1ccnc(=O)[nH]1`, the T/C was 98 % of control and 102 % of control (dose: 32.0 mg/kg/injection, schedule: Q01DX009 (ip), vehicle: Klucel (hydroxypropylcellulose) (HPC)); 113 % of control (dose: 32.0 mg/kg/injection, schedule: Q01DX009 (ip), vehicle: saline with Tween-80); 104 % of control (dose: 32.0 mg/kg/injection, schedule: Q01DX009 (ip), vehicle: saline); 101 % of control and 106 % of control (dose: 64.0 mg/kg/injection, schedule: Q01DX009 (ip), vehicle: Klucel (hydroxypropylcellulose) (HPC)); 97 % of control (dose: 64.0 mg/kg/injection, schedule: Q01DX009 (ip), vehicle: saline with Tween-80); 110 % of control (dose: 64.0 mg/kg/injection, schedule: Q01DX009 (ip), vehicle: saline). Further, the T/C runs as follows: (dose: 128.0 mg/kg/injection, schedule: Q01DX009 (ip), vehicle: Klucel (hydroxypropylcellulose) (HPC)) 103 % of control and 113 % of control; (dose: 128.0 mg/kg/injection, schedule: Q01DX009 (ip), vehicle: saline with Tween-80) 103 % of control; (dose: 128.0 mg/kg/injection, schedule: Q01DX009 (ip), vehicle: saline) 119 % of control; (dose: 256.0 mg/kg/injection, schedule: Q01DX009 (ip), vehicle: Klucel (hydroxypropylcellulose) (HPC)) 94 % of control and 103 % of control; (dose: 256.0 mg/kg/injection, schedule: Q01DX009 (ip), vehicle: saline) 105 % of control; (dose: 512.0 mg/kg/injection, schedule: Q01DX009 (ip), vehicle: Klucel (hydroxypropylcellulose) (HPC)) 100 % of control and 102 % of control. Also, the T/C is, setting by setting: (dose: 512.0 mg/kg/injection, schedule: Q01DX009 (ip), vehicle: saline with Tween-80) 111 % of control; (dose: 512.0 mg/kg/injection, schedule: Q01DX009 (ip), vehicle: saline) 110 % of control.

For `OCC1OC(n2cnc3cc(Cl)c(Cl)cc32)C(O)C1O` (configuration not stated), the T/C runs as follows: under setting [1], 101 % of control and 117 % of control; under setting [2], 100 % of control and 104 % of control and 113 % of control; under setting [3], 97 % of control and 113 % of control and 114 % of control; under setting [4], 107 % of control and 116 % of control; under setting [5], 102 % of control and 121 % of control.

Consider `C[As](C)Sc1ccnc(S[As](C)C)n1`, for which the T/C was 100 % of control under setting [6] and 119 % of control under setting [7].

For the compound `Cc1ccc(S(=O)(=O)N/N=C/C(=O)O)cc1`, the T/C (dose: 0.78 mg/kg/injection, schedule: Q01DX009 (ip), vehicle: saline with Tween-80) was 108 % of control; the T/C (dose: 1.56 mg/kg/injection, schedule: Q01DX009 (ip), vehicle: saline with Tween-80) was 110 % of control; the T/C (dose: 3.12 mg/kg/injection, schedule: Q01DX009 (ip), vehicle: saline with Tween-80) is 104 % of control; the T/C under setting [8] was 103 % of control and 111 % of control; the T/C under setting [1] was 104 % of control and 112 % of control; the T/C under setting [9] is 121 % of control. The T/C is, setting by setting: under setting [2], 111 % of control; (dose: 15.0 mg/kg/injection, schedule: Q01DX009 (ip), vehicle: saline with Tween-80) 112 % of control; (dose: 17.5 mg/kg/injection, schedule: Q01DX009 (ip), vehicle: Klucel (hydroxypropylcellulose) (HPC)) 118 % of control; (dose: 23.0 mg/kg/injection, schedule: Q01DX009 (ip), vehicle: saline with Tween-80) 103 % of control; (dose: 53.0 mg/kg/injection, schedule: Q01DX009 (ip), vehicle: saline with Tween-80) 100 % of control; (dose: 70.0 mg/kg/injection, schedule: Q01DX009 (ip), vehicle: Klucel (hydroxypropylcellulose) (HPC)) 151 % of control. Moreover, the T/C (dose: 70.0 mg/kg/injection, schedule: Q01DX009 (ip), vehicle: saline with Tween-80) was 115 % of control.

`CC[As](=O)(O)CC`: the T/C is 97 % of control (dose: 50.0 mg/kg/injection, schedule: Q01DX009 (ip), vehicle: saline); 103 % of control (dose: 100.0 mg/kg/injection, schedule: Q01DX009 (ip), vehicle: saline); 105 % of control (dose: 200.0 mg/kg/injection, schedule: Q01DX009 (ip), vehicle: saline).

`O=C(O)/C(=C/c1ccc(O)cc1)c1ccccc1`: the T/C is 110 % of control under setting [5]; 100 % of control (dose: 200.0 mg/kg/injection, schedule: Q01DX009 (ip), vehicle: saline with Tween-80); 92 % of control (dose: 400.0 mg/kg/injection, schedule: Q01DX009 (ip), vehicle: saline with Tween-80).

For the compound `CC(=O)Nc1cc2c(cc1Br)-c1ccccc1C2O` (configuration not stated), the T/C by setting is: under setting [2], 92 % of control; (dose: 12.5 mg/kg/injection, schedule: Q04DX003 (ip), vehicle: saline with Tween-80) 92 % of control; under setting [3], 102 % of control; (dose: 25.0 mg/kg/injection, schedule: Q04DX003 (ip), vehicle: saline with Tween-80) 100 % of control; under setting [4], 89 % of control; (dose: 50.0 mg/kg/injection, schedule: Q04DX003 (ip), vehicle: saline with Tween-80) 95 % of control. Moreover, the T/C (dose: 100.0 mg/kg/injection, schedule: Q04DX003 (ip), vehicle: saline with Tween-80) was 90 % of control.

Turning to `CS(=O)(=O)OCCCNCCCOS(C)(=O)=O`, the T/C (dose: 1.25 mg/kg/injection, schedule: Q01DX009 (ip), vehicle: saline) was 103 % of control; the T/C (dose: 2.5 mg/kg/injection, schedule: Q01DX009 (ip), vehicle: saline) was 110 % of control; the T/C (dose: 5.0 mg/kg/injection, schedule: Q01DX009 (ip), vehicle: saline) is 123 % of control; the T/C (dose: 10.0 mg/kg/injection, schedule: Q01DX009 (ip), vehicle: saline) is 159 % of control; the T/C (dose: 20.0 mg/kg/injection, schedule: Q01DX009 (ip), vehicle: saline) was 161 % of control and 175 % of control and 202 % of control; the T/C (dose: 30.0 mg/kg/injection, schedule: Q01DX009 (ip), vehicle: saline) was 189 % of control. In addition, the T/C is, setting by setting: (dose: 40.0 mg/kg/injection, schedule: Q01DX009 (ip), vehicle: saline) 201 % of control and 215 % of control and 271 % of control; (dose: 60.0 mg/kg/injection, schedule: Q01DX009 (ip), vehicle: saline) 228 % of control.

As to `O=C1C=CC(=O)N1c1ccc2c(c1)oc(=O)c1ccccc12`, the T/C under setting [6] was 87 % of control.

As for `CCCCCCCCCCCC(=O)CCC`, the T/C under setting [7] was 93 % of control; the T/C under setting [10] is 91 % of control; the T/C (dose: 400.0 mg/kg/injection, schedule: Q01DX009 (ip), vehicle: Klucel (hydroxypropylcellulose) (HPC)) is 90 % of control.

For `CCCCN(CCCC)C(Cl)=Nc1ccccc1`, the T/C is 89 % of control and 99 % of control under setting [8]; 101 % of control and 102 % of control under setting [9]; 101 % of control (dose: 25.0 mg/kg/injection, schedule: Q01DX009 (ip), vehicle: Klucel (hydroxypropylcellulose) (HPC)); 96 % of control and 103 % of control under setting [6]; 93 % of control and 105 % of control under setting [7]; 88 % of control and 100 % of control under setting [10].

Turning to `CCCCOC(=O)c1ccc(NC(=O)Nc2ccccc2)cc1`, the T/C under setting [3] is 93 % of control, the T/C under setting [4] is 98 % of control and the T/C under setting [5] was 93 % of control.

Regarding `CCOC(=O)C(CC)(CCC(C)C)C(=O)OCC`, the T/C is, setting by setting: under setting [3], 102 % of control; under setting [4], 99 % of control; under setting [5], 97 % of control.

Take `Cc1ccc(C(=O)NC2C(=O)NC(C(C)C)C(=O)N3CCCC3C(=O)N(C)CC(=O)N(C)C(C(C)C)C(=O)OC2C)c2c1Oc1c(c(C(=O)NC3C(=O)NC(C(C)C)C(=O)N4CCCC4C(=O)N(C)CC(=O)N(C)C(C(C)C)C(=O)OC3C)c3nc(CF)c(=O)oc3c1C)N2` (configuration not stated): the T/C (dose: 0.13 mg/kg/injection, schedule: Q04DX003 (ip), vehicle: saline + alcohol) was 154 % of control; the T/C (dose: 0.25 mg/kg/injection, schedule: Q04DX003 (ip), vehicle: saline + alcohol) is 164 % of control; the T/C (dose: 31.25 micrograms/kg/injection, schedule: Q04DX003 (ip), vehicle: water) is 112 % of control; the T/C (dose: 125.0 micrograms/kg/injection, schedule: Q04DX003 (ip), vehicle: water) is 180 % of control; the T/C (dose: 250.0 micrograms/kg/injection, schedule: Q04DX003 (ip), vehicle: water) was 170 % of control; the T/C (dose: 500.0 micrograms/kg/injection, schedule: Q04DX003 (ip), vehicle: water) was 175 % of control.
